Results published in patent US20250346602A1, “LACTAM SUBSTITUTED IMIDAZOPYRIDAZINE IL-17A MODULATORS AND USES THEREOF” (DICE ALPHA, INC., priority 2022, published 2025).

Biological target: T1, IL-17A/A (Homo sapiens, UniProt Q16552)
T1 construct: purchased Genscript Z03228
T1 sequence (Q16552 24-155): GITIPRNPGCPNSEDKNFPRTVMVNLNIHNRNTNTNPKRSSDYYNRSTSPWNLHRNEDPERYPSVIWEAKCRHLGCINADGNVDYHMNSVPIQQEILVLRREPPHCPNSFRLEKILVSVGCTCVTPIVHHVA
Experiment: IL-17A/A HEK-Blue cell assay
Assay type: cell-based
Conditions: HEK-Blue IL-17A reporter cell line (HEK 293), IL-17A/A stimulation, 20 hours incubation, SEAP read at A630
Procedure, shortened: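 IC50 came from a 4-parameter fit of SEAP read at A630 (Quanti-Blue). Compound was titrated to a top final concentration of 10, 1 or 0.3 uM with 0.1% final DMSO and added just before IL-17A/A. Incubation lasted 20 hours in HEK293 cells engineered with IL-17RA, IL-17RC, Act1 and an NFκB-SEAP reporter.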

SMILES | IC50
CCn1nccc1C(=O)N[C@H](c1cn2nc(CC3C[C@@H](C(F)(F)F)CNC3=O)ccc2n1)C1CCC(F)(F)CC1 (stereo partly drawn) [Compound 95, N-((1S)-(4,4-difluorocyclohexyl)(6-(((5R)-2-oxo-5-(trifluoromethyl)piperidin-3-yl)methyl)imidazo[1,2-b]pyridazin-2-yl)methyl)-1-ethyl-1H-pyrazole-5-carboxamide] | 0.1 to 1 µM
O=C(N[C@H](c1cn2nc(CC3C[C@@H](C(F)(F)F)CNC3=O)ccc2n1)C1CCC(F)(F)CC1)c1conc1C(F)(F)C1CC1 (stereo partly drawn) [Compound 125, 3-(cyclopropyldifluoromethyl)-N-((1S)-(4,4-difluorocyclohexyl)(6-(((5R)-2-oxo-5-(trifluoromethyl)piperidin-3-yl)methyl)imidazo[1,2-b]pyridazin-2-yl)methyl)isoxazole-4-carboxamide] | 0.1 to 1 µM
CCn1nccc1C(=O)N[C@H](c1cn2nc(CC3C[C@@H](C(F)(F)F)CNC3=O)c(N(C)C3CCOCC3)cc2n1)C1CCC(F)(F)CC1 (single isomer, unassigned) [Compound 93] | 0.1 to 1 µM
CCn1nccc1C(=O)N[C@H](c1cn2nc(CC3C(=O)NCCC3C)ccc2n1)[C@H]1CC[C@H](C)CC1 (single isomer, unassigned) [Compound 52] | > 1 µM
O=C(N[C@H](c1cn2nc(CC3C[C@H](C(F)(F)F)CNC3=O)ccc2n1)[C@H]1CCCC(F)(F)C1)c1nonc1C1CC1 (stereo partly drawn) [Compound 155, 4-cyclopropyl-N—((S)-((S)-3,3-difluorocyclohexyl)(6-(((5S)-2-oxo-5-(trifluoromethyl)piperidin-3-yl)methyl)imidazo[1,2-b]pyridazin-2-yl)methyl)-1,2,5-oxadiazole-3-carboxamide] | < 0.1 µM
O=C(N[C@H](c1cn2nc(CC3C[C@H](C(F)(F)F)CNC3=O)ccc2n1)[C@@H]1CCCC(F)(F)C1)c1conc1C1CC1 (stereo partly drawn) [Compound 158, 3-cyclopropyl-N-((1S)—((R)-3,3-difluorocyclohexyl)(6-(((5S)-2-oxo-5-(trifluoromethyl)piperidin-3-yl)methyl)imidazo[1,2-b]pyridazin-2-yl)methyl)isoxazole-4-carboxamide] | 0.1 to 1 µM
CCn1nccc1C(=O)N[C@H](c1cn2nc(CC3C[C@@H](C(F)(F)F)CNC3=O)ccc2n1)C1CCCCCC1 (stereo partly drawn) [Compound 169, N—((S)-cycloheptyl(6-(((3R.5R)-2-oxo-5-(trifluoromethyl)piperidin-3-yl)methyl)imidazo[1,2-b]pyridazin-2-yl)methyl)-1-ethyl-1H-pyrazole-5-carboxamide] | 0.1 to 1 µM
CC(C)n1nccc1C(=O)N[C@H](c1cn2nc(CC3C[C@@H](C(F)(F)F)CNC3=O)ccc2n1)[C@H]1CCCC(F)(F)C1 (stereo partly drawn) [Compound 148, N-((1S)—((S)-3,3-difluorocyclohexyl)(6-(((5R)-2-oxo-5-(trifluoromethyl)piperidin-3-yl)methyl)imidazo[1,2-b]pyridazin-2-yl)methyl)-1-isopropyl-1H-pyrazole-5-carboxamide] | < 0.1 µM
O=C(N[C@H](c1cn2nc(CC3C[C@@H](C(F)(F)F)CNC3=O)ccc2n1)C1CCC(F)(F)CC1)c1conc1C(F)(F)F (stereo partly drawn) [Compound 114, N-((1S)-(4,4-difluorocyclohexyl)(6-(((5R)-2-oxo-5-(trifluoromethyl)piperidin-3-yl)methyl)imidazo[1,2-b]pyridazin-2-yl)methyl)-3-(trifluoromethyl)isoxazole-4-carboxamide] | 0.1 to 1 µM
CCn1nccc1C(=O)N[C@H](c1cn2nc(CC3CC(C(F)(F)F)CNC3=O)ccc2n1)C1CCCCCC1 (single isomer, unassigned) [Compound 195] | > 1 µM
CCn1nccc1C(=O)N[C@H](c1cn2nc(CC3(C)C[C@@H](C(F)(F)F)CNC3=O)ccc2n1)[C@H]1CC[C@H](C)CC1 (single isomer, unassigned) [Compound 67] | 0.1 to 1 µM
CCn1nccc1C(=O)N[C@H](c1cn2nc(C[C@H]3CCCNC3=O)ccc2n1)C(C1CC1)C1CC1 (single isomer, unassigned) [Compound 34] | > 1 µM
CCn1nccc1C(=O)N[C@H](c1cn2nc(CC3C[C@@H](C(F)(F)F)NC3=O)ccc2n1)[C@H]1CC[C@H](C)CC1 (single isomer, unassigned) [Compound 16] | 0.1 to 1 µM
CC[C@@H](c1ccc(F)cc1)C(NC(=O)c1ccnn1CC)c1cn2nc(CC3CC(F)(F)CNC3=O)ccc2n1 (single isomer, unassigned) [Compound 30] | 0.1 to 1 µM
O=C(N[C@H](c1cn2nc(CC3C[C@@H](C(F)(F)F)CNC3=O)ccc2n1)C1CCC(F)(F)CC1)c1nonc1C(F)(F)F (stereo partly drawn) [Compound 113, N-((1S)-(4,4-difluorocyclohexyl)(6-(((5R)-2-oxo-5-(trifluoromethyl)piperidin-3-yl)methyl)imidazo[1,2-b]pyridazin-2-yl)methyl)-4-(trifluoromethyl)-1,2,5-oxadiazole-3-carboxamide] | 0.1 to 1 µM
CCn1nccc1C(=O)N[C@H](c1cn2ncc(CC3C[C@@H](C(F)(F)F)NC3=O)cc2n1)C(C1CC1)C1CC1 (single isomer, unassigned) [Compound 201] | > 1 µM
CCn1nccc1C(=O)N[C@H](c1cn2nc(CC3C[C@@H](C(F)(F)F)NC3=O)ccc2n1)C(C1CC1)C1CC1 (single isomer, unassigned) [Compound 15] | > 1 µM
CC[C@@H](c1ccc(F)cc1)[C@H](NC(=O)c1ccnn1CC)c1cn2ncc(CC3C[C@@H](C(F)(F)F)NC3=O)cc2n1 (single isomer, unassigned) [Compound 218] | < 0.1 µM
CCn1nccc1C(=O)NC(c1cn2nc(CC3CC(C)CNC3=O)ccc2n1)C1CCC(C)CC1 (single isomer, unassigned) [Compound 49] | 0.1 to 1 µM
CC[C@@H](c1ccc(F)cc1)[C@H](NC(=O)c1ccnn1CC)c1cn2nc(CC3C[C@@H](C(F)(F)F)CNC3=O)ccc2n1 (stereo partly drawn) [Compound 168, 1-ethyl-N-((1S,2S)-2-(4-fluorophenyl)-1-(6-(((3R.5R)-2-oxo-5-(trifluoromethyl)piperidin-3-yl)methyl)imidazo[1,2-b]pyridazin-2-yl)butyl)-1H-pyrazole-5-carboxamide] | < 0.1 µM
Cc1nonc1C(=O)N[C@H](c1cn2nc(CC3C[C@@H](C(F)(F)F)CNC3=O)ccc2n1)C1CCC(F)(F)CC1 (stereo partly drawn) [Compound 100, N-((1S)-(4,4-difluorocyclohexyl)(6-(((5R)-2-oxo-5-(trifluoromethyl)piperidin-3-yl)methyl)imidazo[1,2-b]pyridazin-2-yl)methyl)-4-methyl-1,2,5-oxadiazole-3-carboxamide] | 0.1 to 1 µM

Further lines, results first:

IC50 | SMILES
0.1 to 1 µM | CC(C)n1nncc1C(=O)N[C@H](c1cn2nc(CC3C[C@@H](C(F)(F)F)CNC3=O)ccc2n1)[C@H]1CC[C@H](C)CC1 (stereo partly drawn) [Compound 163, N-((1S)-((1R.4S)-4-methylcyclohexyl)(6-(((5R)-2-oxo-5-(trifluoromethyl)piperidin-3-yl)methyl)imidazo[1,2-b]pyridazin-2-yl)methyl)-1-isopropyl-1H-1,2,3-triazole-5-carboxamide]
> 1 µM | CCn1nccc1C(=O)N[C@H](c1cn2nc(CC3C[C@@H](C(F)(F)F)CNC3=O)ccc2n1)[C@@H]1C[C@H]2C[C@H]2C1 (stereo partly drawn) [Compound 170, N-((1S)-((1R,3S,5S)-bicyclo[3.1.0]hexan-3-yl)(6-(((5R)-2-oxo-5-(trifluoromethyl)piperidin-3-yl)methyl)imidazo[1,2-b]pyridazin-2-yl)methyl)-1-ethyl-1H-pyrazole-5-carboxamide]
> 1 µM | Cc1nonc1C(=O)N[C@H](c1cn2nc(C[C@H]3C[C@@H](C(F)(F)F)NC3=O)ccc2n1)C(C1CC1)C1CC1 [Compound 21, N—((S)-2,2-dicyclopropyl-1-(6-(((3R,5S)-2-oxo-5-(trifluoromethyl)pyrrolidin-3-yl)methyl)imidazo[1,2-b]pyridazin-2-yl)ethyl)-4-methyl-1,2,5-oxadiazole-3-carboxamide]
0.1 to 1 µM | CCn1nccc1C(=O)NC(c1cn2nc(CC3CC(F)(F)CNC3=O)ccc2n1)C1CCCC(F)(F)C1 (mixture of isomers) [Compound 32, N-((6-((5,5-difluoro-2-oxopiperidin-3-yl)methyl)imidazo[1,2-b]pyridazin-2-yl)(3,3-difluorocyclohexyl)methyl)-1-ethyl-1H-pyrazole-5-carboxamide]
< 0.1 µM | CCn1nccc1C(=O)N[C@H](c1cn2nc(CC3CC(F)(F)CNC3=O)ccc2n1)C1CCCCCC1 (single isomer, unassigned) [Compound 9, N-((1 S)-cycloheptyl(6-((5,5-difluoro-2-oxopiperidin-3-yl)methyl)imidazo[1,2-b]pyridazin-2-yl)methyl)-1-ethyl-1H-pyrazole-5-carboxamide]
< 0.1 µM | O=C(N[C@H](c1cn2nc(CC3C[C@@H](C(F)(F)F)CNC3=O)ccc2n1)C1CCC(F)(F)CC1)c1conc1C1CC1(F)F (single isomer, unassigned) [Compound 126]
0.1 to 1 µM | CCn1nccc1C(=O)N[C@H](c1cn2nc(CC3CCCNC3=O)ccc2n1)C1CCC(F)(F)CC1 (single isomer, unassigned) [Compound 13, N-((1 S)-(4,4-difluorocyclohexyl)(6-((2-oxopiperidin-3-yl)methyl)imidazo[1,2-b]pyridazin-2-yl)methyl)-1-ethyl-1H-pyrazole-5-carboxamide]
0.1 to 1 µM | CCn1nccc1C(=O)NC(c1cn2nc(CC3CC(F)(F)CNC3=O)ccc2n1)C1CCC(C)CC1 (single isomer, unassigned) [Compound 26]
0.1 to 1 µM | CC(C)(F)c1nocc1C(=O)N[C@H](c1cn2nc(CC3C[C@@H](C(F)(F)F)CNC3=O)ccc2n1)C1CCC(F)(F)CC1 (stereo partly drawn) [Compound 121, N-((1S)-(4,4-difluorocyclohexyl)(6-(((5R)-2-oxo-5-(trifluoromethyl)piperidin-3-yl)methyl)imidazo[1,2-b]pyridazin-2-yl)methyl)-3-(2-fluoropropan-2-yl)isoxazole-4-carboxamide]
